# Where two headings read alike, the source gives them in different places.
# Tests used:
# [1] = Length of time the subject maintained a 5.5 mph pace on an elliptical trainer (athletic performance); assay type: in vivo, human; details: single oral capsule, 600 mg 2-phenylethylamine nitrate or equimolar admixture
# Experimental: (§1) Solid dose capsules (size “00”, gelatin) were prepared containing either 600 mg of 2-phenylethylamine nitrate or equimolar quantities of an admixture of 2-phenylethylamine HCl and sodium nitrate (NaNO3). A placebo filled with an inert substance (200 mesh guar gum) was also prepared. The subject was given a single capsule containing 2-phenylethylamine nitrate, an admixture of 2-phenylethylamine HCl and NaNO3, or the placebo.
# After oral administration of the compound, the subject's ability to maintain a speed of about 5.5 mph on an elliptical trainer was measured. The length of time was recorded before the subject became fatigued and was no longer able to maintain this pace (see Table 1). Athletic performance was measured at times soon after administration of the compound before the subject had engaged in significant physical activity that day (at about 9:30 am each day). The subject was blinded to the identity of the capsules.
# [2] = Subject-reported duration of euphoria and of vasodilation (drop in systolic blood pressure, sphygmomanometer); assay type: in vivo, human; details: 600 mg oral capsule
# Experimental: as §1
# The subject estimated that the effect of the 2-phenylethylamine nitrate lasted substantially longer than the effect of the admixture. For example, the 2-phenylethylamine nitrate produced a sense of euphoria that typically lasted 50% longer than that experienced with the admixture.
# [3] = Sexual performance of the subject (penile erectile genesis and maintainability); assay type: in vivo, human; details: single oral capsule
# Experimental: Solid dose capsules were prepared as described in Example 3. The subject was given a single capsule containing 2-phenylethylamine nitrate, an admixture of 2-phenylethylamine HCl and NaNO3, or a placebo.
# Sexual performance was evaluated in the subject by the relative length of time and number of times they were able to maintain an erection and engage in sexual intercourse (i.e., penile erectile genesis and maintainability) with their partner during a given period.
# [4] = Clinical observation of onset and duration of athletic performance-enhancing effects after oral dose; assay type: in vivo
# [5] = Tolerability of daily oral doses; assay type: in vivo
# [6] = as measured using the HCl salt; cited from earlier work
# [7] = cited from earlier work
Structure (SMILES),Percent Improvement Compared to Placebo [1] [%],Time (Minutes) that the subject maintained a 5.5 mph pace on an elliptical ([1]; average of several occasions) [min],Duration of vasodilation versus the admixture ([2]; measured by drop in systolic blood pressure),"Sense of euphoria: duration longer than that experienced with the admixture ([2]; subject's estimate, versus admixture) [%]",Sexual performance after administration ([3]; compared with admixture or placebo),"Reduction of refractory time between erections ([3]; subject, self-reported) [%]",Time to clinically observable athletic performance-enhancing effects after ingestion ([4]; single dose of 0.100 grams to 0.600 grams) [min],"Time for which athletic performance-enhancing effects are clinically observable ([4]; single, oral dose as low as 0.200 grams) [h]",Daily oral dose tolerated without significant side effects [5] [grams],pKb [6],half-life ([7]; in vivo) [min],Increase of brain levels when taking an MAO inhibitor ([7]; initial 2-phenylethylamine brain concentration low) [fold],Increase of brain levels when taking an MAO inhibitor ([7]; initial concentration high)
"NCCc1ccccc1.O=[N+]([O-])O [2-Phenylethylamine Nitrate, 2-phenylethylamine nitrate]",10,66,at least twice as long,50,surprising enhancement in their sexual performance,~35,≤ 10,≤ 6,≤ 3.00,–,–,–,–
NCCc1ccccc1 [2-phenylethylamine],–,–,–,–,–,–,–,–,–,4.17,5 to 10,~1000,3-4 times

# From US9526793B1, “Salts of phenylethylamines and inorganic acids and methods of use thereof” (priority 2013, dated 2016)
